Data taken from ChEMBL document CHEMBL5257097, “An Isomer of Galidesivir That Potently Inhibits Influenza Viruses and Members of the Bunyavirales Order” (ACS Med Chem Lett, 2023).

Key:
dengue virus type 2 [1] = test: Antiviral activity against DENV-2 infected in human Huh-7 cells assessed as reduction in virus-induced cytopathic effect measured after 15 to 30 mins by neutral red based analysis; format: functional, organism-based
Huh-7 [2] = test: Cytotoxicity against human Huh-7 cells infected with DENV-2 assessed as reduction in cell viability by visual analysis; format: functional
Yellow fever virus [3] = test: Antiviral activity against Yellow fever virus infected in human Huh-7 cells assessed as reduction in virus-induced cytopathic effect measured after 15 to 30 mins by neutral red based analysis; format: functional, organism-based
Huh-7 [4] = test: Cytotoxicity against human Huh-7 cells infected with Yellow fever virus assessed as reduction in cell viability by visual assay; format: functional
[5] = Selectivity index, ratio of CC50 for cytotoxicity against human Huh-7 cells infected with Yellow fever virus assessed as reduction in cell viability by neutral red dye based assay to EC50 for antiviral activity against Yellow fever virus infected in human Huh-7 cells assessed as reduction in virus-induced cytopathic effect by neutral red based analysis; format: toxicity; conditions: read-out: Ratio CC50/EC50
Influenza A virus [6] = test: Antiviral activity against Influenza A virus H1N1 infected in dog MDCK cells assessed as reduction in virus-induced cytopathic effect measured after 15 to 30 mins by neutral red based analysis; format: functional, organism-based
[7] = Cytotoxicity against dog MDCK cells infected with Influenza A virus H1N1 assessed as reduction in cell viability by neutral red dye based assay; format: toxicity, Canis lupus familiaris
[8] = Selectivity index, ratio of CC50 for cytotoxicity against dog MDCK cells infected with Influenza A virus H1N1 assessed as reduction in cell viability by neutral red dye based analysis to EC50 for antiviral activity against Influenza A virus H1N1 infected in dog MDCK cells assessed as reduction in virus-induced cytopathic effect by neutral red dye based analysis; format: toxicity; conditions: read-out: Ratio CC50/EC50
[9] = tested on: Middle East respiratory syndrome-related coronavirus; test: Antiviral activity against MERS-CoV infected in African green monkey Vero 76 cells assessed as reduction in virus-induced cytopathic effect measured after 15 to 30 mins by neutral red dye based analysis; format: functional, organism-based
[10] = Cytotoxicity against African green monkey Vero 76 cells infected with MERS-CoV assessed as reduction in cell viability by neutral red dye based analysis; format: toxicity; conditions: chlorocebus sabaeus
[11] = (§1) Selectivity index, ratio of CC50 for cytotoxicity against African green monkey Vero 76 cells infected with MERS-CoV assessed as reduction in cell viability by neutral red dye based analysis to EC50 for antiviral activity against MERS-CoV infected in African green monkey Vero 76 cells assessed as reduction in virus-induced cytopathic effect by neutral red dye based analysis; format: toxicity; conditions: read-out: Ratio CC50/EC50
Rift Valley fever virus [12] = test: Antiviral activity against Rift valley fever virus infected in African green monkey Vero 76 cells assessed as reduction in virus-induced cytopathic effect measured after 15 to 30 mins by neutral red dye based analysis; format: functional, organism-based
[13] = Cytotoxicity against African green monkey Vero 76 cells infected with Rift valley fever virus assessed as reduction in cell viability by neutral red dye based analysis; format: toxicity; conditions: chlorocebus sabaeus
[14] = as §1, with “Rift valley fever virus” for “MERS-CoV”; format: toxicity; conditions: read-out: Ratio CC50/EC50
dengue virus type 2 [15] = test: Antiviral activity against DENV-2 infected in African green monkey Vero cells assessed as reduction in virus-induced cytopathic effect measured after 15 to 30 mins by visual analysis; format: functional, organism-based
dengue virus type 2 [16] = test: Antiviral activity against DENV-2 infected in African green monkey Vero cells assessed as reduction in virus-induced cytopathic effect measured after 15 to 30 mins by neutral red based analysis; format: functional, organism-based
[17] = Cytotoxicity against African green monkey Vero cells infected with DENV-2 assessed as reduction in cell viability by visual assay; format: toxicity, cell-based; conditions: chlorocebus sabaeus
[18] = Cytotoxicity against African green monkey Vero cells infected with DENV-2 assessed as reduction in cell viability by neutral red dye based assay; format: toxicity; conditions: chlorocebus sabaeus
[19] = (§2) Selectivity index, ratio of CC50 for cytotoxicity against African green monkey Vero cells infected with DENV-2 assessed as reduction in cell viability by visual analysis to EC50 for antiviral activity against DENV-2 infected in human Huh-7 cells assessed as reduction in virus-induced cytopathic effect by visual analysis; format: toxicity, cell-based; conditions: read-out: Ratio CC50/EC50
[20] = as §2, with “neutral red” for “visual”; format: toxicity, cell-based; conditions: read-out: Ratio CC50/EC50
Yellow fever virus [21] = test: Antiviral activity against Yellow fever virus infected in human Huh-7 cells assessed as reduction in virus-induced cytopathic effect measured after 15 to 30 mins by visual analysis; format: functional, organism-based; conditions: huh-7
Zika virus [22] = test: Antiviral activity against Zika virus infected in African green monkey Vero 76 cells assessed as reduction in virus-induced cytopathic effect measured after 15 to 30 mins by visual analysis; format: functional, organism-based
Zika virus [23] = test: Antiviral activity against Zika virus infected in African green monkey Vero 76 cells assessed as reduction in virus-induced cytopathic effect measured after 15 to 30 mins by neutral red based spectrophotometric analysis; format: functional, organism-based
[24] = Cytotoxicity against African green monkey Vero 76 cells infected with Zika virus assessed as reduction in cell viability by visual analysis; format: toxicity, cell-based; conditions: chlorocebus sabaeus
[25] = Cytotoxicity against African green monkey Vero 76 cells infected with Zika virus assessed as reduction in cell viability by neutral red dye based assay; format: toxicity; conditions: chlorocebus sabaeus
[26] = as §2, with “Vero 76” for “Vero cells”, “with Zika virus” for “with DENV-2”, “against Zika virus” for “against DENV-2”, “in African green monkey Vero 76” for “in human Huh-7”; format: toxicity, cell-based; conditions: Vero 76 cells infected with Zika virus, read-out: Ratio CC50/EC50
[27] = Selectivity index, ratio of CC50 for cytotoxicity against African green monkey Vero 76 cells infected with Zika virus assessed as reduction in cell viability by neutral red dye based analysis to EC50 for antiviral activity against Zika virus infected in African green monkey Vero 76 cells assessed as reduction in virus-induced cytopathic effect by neutral red based spectrophotometric analysis; format: toxicity; conditions: read-out: Ratio CC50/EC50
Influenza A virus [28] = test: Antiviral activity against Influenza A virus H1N1 infected in dog MDCK cells assessed as reduction in virus-induced cytopathic effect measured after 15 to 30 mins by visual analysis; format: functional, organism-based
[29] = Cytotoxicity against dog MDCK cells infected with Influenza A virus H1N1 assessed as reduction in cell viability by visual analysis; format: toxicity, cell-based, Canis lupus familiaris
[30] = tested on: Middle East respiratory syndrome-related coronavirus; test: Antiviral activity against MERS-CoV infected in vervet monkey MA-104 cells assessed as reduction in virus-induced cytopathic effect measured after 15 to 30 mins by visual analysis; format: functional, organism-based; conditions: MA104
[31] = tested on: Middle East respiratory syndrome-related coronavirus; test: Antiviral activity against MERS-CoV infected in vervet monkey MA-104 cells assessed as reduction in virus-induced cytopathic effect measured after 15 to 30 mins by neutral red dye based assay; format: functional, organism-based; conditions: MA104
[32] = Cytotoxicity against vervet monkey MA-104 cells infected with MERS-CoV assessed as reduction in cell viability by visual assay; format: toxicity, cell-based; conditions: cercopithecus pygerythrus
[33] = Cytotoxicity against vervet monkey MA-104 cells infected with MERS-CoV assessed as reduction in cell viability by neutral red dye based assay; format: toxicity; conditions: cercopithecus pygerythrus
[34] = as §1, with “visual” for “neutral red dye based”; format: toxicity, cell-based; conditions: read-out: Ratio CC50/EC50
Rift Valley fever virus [35] = test: Antiviral activity against Rift valley fever virus infected in African green monkey Vero 76 cells assessed as reduction in virus-induced cytopathic effect measured after 15 to 30 mins by visual analysis; format: functional, organism-based
[36] = Cytotoxicity against African green monkey Vero 76 cells infected with Rift valley fever virus assessed as reduction in cell viability by visual analysis; format: toxicity, cell-based; conditions: chlorocebus sabaeus
[37] = as §2, with “Vero 76” for “Vero”, “Rift valley fever virus” for “DENV-2”, “African green monkey Vero 76” for “human Huh-7”; format: toxicity, cell-based; conditions: read-out: Ratio CC50/EC50
Influenza A virus [38] = test: Antiviral activity against Influenza A virus H3N2 infected in dog MDCK cells; format: functional, organism-based
Influenza A virus [39] = test: Antiviral activity against Influenza A virus H1N1 infected in dog MDCK cells; format: functional, organism-based
Influenza A virus [40] = test: Antiviral activity against Influenza A virus H7N9 infected in dog MDCK cells; format: functional, organism-based
Influenza B virus = test: Antiviral activity against Influenza B virus infected in dog MDCK cells
[41] = Cytotoxicity against dog MDCK cells infected with Influenza A virus H1N1; format: toxicity, cell-based, Canis lupus familiaris
[42] = Cytotoxicity against dog MDCK cells infected with Influenza A virus H3N2; format: toxicity, cell-based, Canis lupus familiaris
[43] = Cytotoxicity against dog MDCK cells infected with Influenza B virus; format: toxicity, cell-based, Canis lupus familiaris

Compound `CC(C)OC(=O)[C@H](C)N[P@](=O)(OC[C@H]1N[C@@H](c2ccc3c(N)ncnn23)[C@H](O)[C@@H]1O)Oc1ccccc1` has an EC50 (dengue virus type 2 [1]) of 1100 nM, a CC50 (Huh-7 [2]) of 9.9 µM and an EC50 (Yellow fever virus [3]) of 3.6 µM. The CC50 (Huh-7 [4]) was 9.9 µM, the selectivity ratio [5] was 9 and the EC50 (Influenza A virus [6]) was 4.7 µM. The CC50 [7] was > 32 µM, the selectivity ratio [8] was > 6.8 and the EC50 [9] was 13 µM. For the same compound, the CC50 [10] was 68 µM, the selectivity ratio [11] was 5.2 and the EC50 (Rift Valley fever virus [12]) was 0.99 µM. The CC50 [13] was > 32 µM and the selectivity ratio [14] was > 32.

For `Nc1ncnc2c([C@@H]3N[C@H](CO)[C@@H](O)[C@H]3O)n[nH]c12`, the EC50 (dengue virus type 2 [15]) was 3.2 µM, the EC50 (dengue virus type 2 [16]) was 2800 nM and the CC50 [17] was > 100 µM. It also gave a CC50 [18] of 2800 nM, a selectivity ratio [19] of 3.1 and a selectivity ratio [20] of 3.5. For the same compound, the EC50 (Yellow fever virus [21]) was “Not Active”, the EC50 (Zika virus [22]) was 32 µM and the EC50 (Zika virus [23]) was 12 µM. The CC50 [24] was 100 µM, the CC50 [25] was 13 µM and the selectivity ratio [26] was 3.1. The selectivity ratio [27] was 1.1, the EC50 (Influenza A virus [28]) was > 100 µM and the EC50 (Influenza A virus [6]) was > 100 µM. The CC50 [29] was > 100 µM, the CC50 [7] was > 100 µM and the EC50 [30] was 8.6 µM. For the same compound, the EC50 [31] was 9.9 µM, the CC50 [32] was 42 µM and the CC50 [33] was 45 µM. For the same compound, the selectivity ratio [34] was 4.9, the selectivity ratio [11] was 4.5 and the EC50 (Rift Valley fever virus [35]) was 4.2 µM. For the same compound, the CC50 [36] was 8.3 µM, the EC50 (Rift Valley fever virus [12]) was 4.2 µM and the CC50 [13] was > 100 µM. It also gave a selectivity ratio [37] of 8.3 and a selectivity ratio [14] of 7.6.

In the case of `CC(C)OC(=O)[C@H](C)N[P@](=O)(OC[C@H]1N[C@@H](c2c[nH]c3c(N)ncnc23)[C@H](O)[C@@H]1O)Oc1ccccc1`, the EC50 (dengue virus type 2 [1]) is reported as > 100000 nM, the CC50 (Huh-7 [2]) is reported as > 100 µM and the EC50 (Yellow fever virus [3]) is reported as > 100 µM. The CC50 (Huh-7 [4]) was > 100 µM, the EC50 (Influenza A virus [6]) was > 100 µM and the CC50 [7] was > 100 µM. For the same compound, the EC50 [9] was > 100 µM, the CC50 [10] was > 100 µM and the EC50 (Rift Valley fever virus [12]) was > 100 µM. For the same compound, the CC50 [13] was > 100 µM.

For `NC(=O)c1ncn([C@@H]2O[C@H](CO)[C@@H](O)[C@H]2O)n1` [RIBAVIRIN], the EC50 (Influenza A virus [38]) was 1900 nM, the EC50 (Influenza A virus [39]) was 1900 nM and the EC50 (Influenza A virus [40]) was 10 µM. For the same compound, the EC50 (Influenza B virus) was 1900 nM, the CC50 [41] was > 1 mM and the CC50 [42] was > 1 mM. The CC50 [43] was > 1 mM.
